Test results as given in patent US20220152044A1, “TREATMENT OF INFLAMMATORY DISEASES OF THE CENTRAL NERVOUS SYSTEM” (PALMAYA PTY LTD, priority 2019, published 2022).

Tests used:
cannabis withdrawal = assay: Withdrawal from cannabis with high THC concentrations; type: in vivo, human; details: naltrexone implants, plasma concentration 0.5 ng/ml to 10 ng/ml or more
Source text: Cannabis use has changed in recent years with a significant cohort describing high tetrahydrocannabinol (THC) concentrations in potent strains which are cultivated for their high THC content. In the patient group using these high concentrations of THC, we have noted that a group of patients give a clear cut history of extreme nausea, vomiting, anxiety changing to serious paranoid thoughts and delusions followed by psychosis over the first 3-5 days of ceasing drug use.
In a severe patient population, ondansetron may be given every 6-8 hours to assist in reducing the nausea and associated anxiety symptoms.
Our results indicated a clear reduction in anxiety, and paranoid symptoms, allowing patients who otherwise would be unable to cope with the symptoms, to cease cannabis use.

craving for nicotine = assay: Nicotine craving and use in patients; type: in vivo, human; details: flumazenil by infusion or nasally/sublingually 50 to 200 micrograms per dose
amphetamine use = assay: Amphetamine / methamphetamine craving and withdrawal; type: in vivo, human; details: naltrexone implants, plasma concentration maintained at 2 ng/ml or higher
Procedure: In those patients that return 2-3 weeks with extreme anxiety and a desire to return to amphetamine use, the commencement of flumazenil infusions followed by a flumazenil implant that sustains a plasma concentration of flumazenil at 0.5-2 ng/ml or more decreases the cravings, including a decrease in the desire for amphetamines and allows reduction f irritability and aggression.

HPA axis = HPA axis in stressed animals; type: in vivo
Source text: For this reason the combination of sustained release naltrexone and sustained release flumazenil using injections, implants or infusions would be expected to limit neuro-inflammatory diseases and their symptoms.

alcohol use = assay: Return to alcohol use on naltrexone with or without flumazenil; type: in vivo, human; details: naltrexone 2 ng/ml; flumazenil 40 to 160 μg/hour where combined
Procedure: We have observed that in this group of patients complain of increased irritability, increased anxiety, increased sleep disturbance, and/or increased aggressive behaviour. However, when administered together with flumazenil at a concentration of 40 to 160 μg/hour, these systems are controlled.
For patients with a history of relapse on naltrexone implants, the use of sustained release flumazenil with infusions initially and with a series of sustained release flumazenil implants delivering 40-160 μg/hour to sustain a concentration of 0.5 ng/ml or more appear to be useful in controlling the return to alcohol use. For example, we have shown that in women with a history of irritability and return to drinking in the premenstrual days, this treatment with sustained release flumazenil in combination with naltrexone, reduces craving and relapse patterns.

PTSD = PTSD patients treated with flumazenil and/or naltrexone; type: in vivo, human; details: severe case, had occurred for 6 years; naltrexone implant inserted
Source text: Post Trauma Stress Disorder (PTSD), causes dysregulation of anxiety control that may damage the GABAA system and present as hypervigilance, sleep disturbance, anxiety, gastrointestinal (GIT) or bladder symptoms. We have been using flumazenil for more than 8 years to treat patients presenting complex. The infusions and implants give relief to the anxiety, sleep disturbance and the GIT symptoms as well as urinary symptoms in many well established PTSD patients.
Sleep remained normal following this. The profound recovery of sleep in patients with PTSD using flumazenil and naltrexone by continuous delivery has not previously been described.

cocaine use = assay: Cocaine craving in patients with naltrexone implants; type: in vivo, human; details: approximately 15 patients, reported by most
Source text: Approximately 15 […] patients have presented specifically for the control of their cocaine use using naltrexone implants. Approximately a third of these patients were from the United Kingdom, a third from Sydney, Australia and a third from Perth, Australia. This group of patients reported a reduction in craving with naltrexone implants, and most reported a reduction in cravings for 6-12 months after receiving the implant. Approximately half returned for repeat implants based on their observations that the naltrexone implant controlled their cravings.

O=C1CC[C@@]2(O)[C@H]3Cc4ccc(O)c5c4[C@@]2(CCN3CC2CC2)[C@H]1O5 [naltrexone]
cannabis craving and impulse control (cannabis withdrawal): reduces the craving and improves impulse control
craving for and use of nicotine (craving for nicotine): reduced craving for nicotine
craving for amphetamine use (amphetamine use): significant reduction in craving
return of the HPA axis to normal (HPA axis): help return the HPA axis
return to alcohol use (alcohol use): return to drinking alcohol
waking at 2 am with shouting and anxiety (PTSD): stopped immediately
duration of reduction in cravings after receiving the implant (cocaine use): 6-12 months
